{
  "source": "patent US5883119A",
  "about": "“Triterpene derivatives with immunosuppressant activity” (Merck & Co., Inc., priority 1996, dated 1999)",
  "origin": "cited, not measured here",
  "system": "Kv 1.3 channels (CHO cells transfected with Kv 1.3 channels)",
  "details": "stated in the method as property of the control blocker",
  "note": "pIC50: −log10 of the molar value.",
  "data": [
    {"substance": "margatoxin (TIINVKCTSPKQCLPPCKAQFGQSAGAKCMNGKCKCYPH; UniProt P40755 1-39, looked up)", "values": [
      {"measurement": "pIC50", "value": 10.00}
    ]}
  ]
}
